Values of other authors in patent publication US9211237B2, “Film foaming hydroalcoholic foam” (STIEFEL RESEARCH AUSTRALIA PTY LTD, priority 2003, dated 2015).

Settings: UV absorber

| maximum absorption [nm] | SMILES |
| --- | --- |
| 308 | CCCCC(CC)COC(=O)C=Cc1ccc(OC)cc1 (centres unmarked) [Parsol MCX, octinoxate] |
| ~360 | COc1ccc(C(=O)CC(=O)c2ccc(C(C)(C)C)cc2)cc1 [Parsol 1789, butyl methoxydibenzolymethane] |
